Measurements reported in patent US9809697B2, “Crosslinking agent, crosslinked polymer, and compound” (THE NIPPON SYNTHETIC CHEMICAL INDUSTRY CO., LTD., priority 2013, dated 2017).

Experiment: Solubility in water
Assay type: physicochemical
Conditions: solubility in 100 g of water at 23° C.
Method: The white solid obtained above was examined for solubility in 100 g of water at 23° C.

Compound | Crosslinking agent Solubility [g]
NNC(=O)CCCCC(=O)NN [ADH, adipic acid dihydrazide] | 12.5
CN(N)C(=O)CCCCC(=O)N(C)N [formula (4)] | 150
